Results as given in PubChem BioAssay AID504544 (Sanford-Burnham Center for Chemical Genomics, 2011).

tested on: S. cerevisiae tim23-1 mutant growth, luminescence; assay: growth inhibition of tim23-1 mutant yeast, dose response, counter-screen for tim10-1 yeast inhibitor project, luminescence, uHTS hits (AID 504544)

Compared with `O=C1CC(Sc2nnnn2-c2ccccc2)C(=O)N1c1cccc(Cl)c1` (configuration not stated), `Cc1cc(C)cc(N2C(=O)CC(Sc3nnnn3-c3ccccc3)C2=O)c1` (configuration not stated) is 2.3-fold lower in IC50: 2.92 µM for the first, 1.26 µM for the second. The second is the more potent here.

First: COc1cc(N=c2ssnc2Cl)c(OC)cc1Cl
Second: CCOC(=O)c1ccc(N=c2ssnc2Cl)cc1
The IC50 of the first is 1.7-fold higher: 3.77 µM for the first, 2.22 µM for the second. The second is the more potent here.

`COc1ccc(Br)cc1[C@H]1[C@@H]2C=CCC[C@@]2(C)C(=O)N1Cc1ccccc1` and `COc1ccc(Br)cc1[C@H]1[C@H]2C=CC[C@@H](C)[C@@H]2C(=O)N1Cc1ccccc1` are within 1.5-fold of each other in IC50: 14.3 µM for the first, 16.3 µM for the second.

Compared with `COc1ccc(/C(C)=N/NC(=S)NCCc2ccccc2)cc1`, `COc1ccc(-n2cc(-c3ccccc3)c3c(=S)nc[nH]c32)cc1` is 2-fold higher in IC50: 19.5 µM for the first, 38.4 µM for the second.

Going from `CCSc1nc2ccccc2n1C(=O)/C=C\c1ccc(OC)c(OC)c1` to `COc1cc(OC)c(C(=O)O/N=C(\N)c2ccc(C)cc2)cc1OC`, the IC50 falls from 11.8 µM to 6.94 µM (1.7-fold).

Going from `O=C(NNC(=S)Nc1cccc(C(F)(F)F)c1)c1ccc(Cl)cc1Cl` to `CC(=O)c1ccc(NC(=S)NC(C)c2ccc(Cl)cc2Cl)cc1` (configuration not stated), the IC50 rises from 7.04 µM to 13.8 µM (2-fold). The first is the more potent here.

Compared with `CCOC(=O)/C=C/C(=O)Nc1cccc([N+](=O)[O-])c1`, `CCOc1ccccc1NC(=O)/C=C/C(N)=O` is 2.8-fold higher in IC50: 2.61 µM for the first, 7.36 µM for the second. The first is the more potent here.

Going from `Cc1cc(/C=C\c2ccc3cc(N(C)C)ccc3[n+]2C)c(C)n1-c1ccccc1` to `O=c1c2ccccc2[se]n1-c1ccccc1`, the IC50 falls from 5.95 µM to 0.88 µM (6.8-fold). The second is the more potent here.

`Nc1ccccc1C(=O)/C=C/c1ccc2c(c1)OCO2` and `O=C(/C=C/c1ccc2c(c1)OCCCO2)c1ccccc1O` are within 1.5-fold of each other in IC50: 18.9 µM for the first, 18.3 µM for the second.

First: N/C(Cc1ccc(Cl)cc1Cl)=N\OC(=O)Cc1ccc(Cl)cc1
Second: COc1ccc(C(=O)O/N=C(\N)c2ccc(Cl)cc2)cc1
The IC50 of the first is 5.1-fold lower: 1.39 µM for the first, 7.13 µM for the second. The first is the more potent here.

Compared with `O=C1C2C3C=CC(CO)(O3)C2C(=O)N1c1ccccc1-c1ccccc1` (configuration not stated), `C[C@@H]1CC=C[C@H]2[C@H]1C(=O)N(Cc1ccccc1)[C@H]2c1ccc(-c2ccoc2)cc1F` is 7-fold higher in IC50: 1.83 µM for the first, 12.9 µM for the second.

`COc1ccc(-c2sc3cc4c(cc3c2C#CC2(N)CCCCC2)OCO4)cc1` and `CN(C)CCCN(C(=O)c1cc2cc([N+](=O)[O-])ccc2s1)c1nc2cc3c(cc2s1)OCCO3` are within 1.5-fold of each other in IC50: 9.36 µM for the first, 13.5 µM for the second.

Compared with `O=C1CS(=O)(=O)N(Cc2cccc(F)c2)c2ccc(Br)cc21`, `CC(C)(C)c1ccc(CN2N=Nc3ccccc3S2(=O)=O)cc1` is 2.2-fold lower in IC50: 12.6 µM for the first, 5.66 µM for the second. The second is the more potent here.

`Cn1c(/C=C/c2ccc([N+](=O)[O-])o2)nc2ccccc2c1=O` and `O=c1c2ccccc2nc(/C=C/c2ccc([N+](=O)[O-])o2)n1CCCO` are within 1.5-fold of each other in IC50: 6.28 µM for the first, 5.81 µM for the second.

Going from `CCCCNC(=S)Nc1ccc(C(F)(F)F)cc1` to `N#C/C(=N/Nc1ccc(OC(F)(F)F)cc1)C(N)=S`, the IC50 falls from 12 µM to 1.31 µM (9.2-fold).

`O=C(O)/C=C/C(=O)c1ccc2c(c1)CCc1ccccc1-2` and `Cc1cccc(NC(=S)N/N=C2/CCCCc3ccccc32)c1` are within 1.5-fold of each other in IC50: 5.09 µM for the first, 7.44 µM for the second.

Compared with `COc1ccc(C(=O)O/N=C(\N)c2ccc(Br)cc2)cc1`, `CCOC(=O)c1ccc(N2C(=O)C=CC2=O)cc1` is 30-fold lower in IC50: 14.4 µM for the first, 0.48 µM for the second. The second is the more potent here.

First: CCOC(=O)c1ccc(NC(=O)CC2OCCN(CC)C2=O)cc1 (configuration not stated)
Second: CCOC(=O)c1c(OCC)[nH]c2c1cc(O)c1ccccc12
The IC50 of the first is 8.5-fold lower: 2.02 µM for the first, 17.1 µM for the second. The first is the more potent here.

Going from `CC(C)c1nnc(NC(=O)CCS(=O)(=O)c2nc(-c3cccs3)cc(C(F)(F)F)n2)s1` to `COc1cc(C(=O)Nc2ccc(Cl)c(C(F)(F)F)c2)cc(OC)c1OC`, the IC50 rises from 8.43 µM to 33.3 µM (4-fold). The first is the more potent here.

`c1ccc(Nc2cccc(Nc3ccccc3)n2)cc1` and `c1ccc(Nc2cccc(Nc3ccccc3)c2)cc1` are within 1.5-fold of each other in IC50: 9.11 µM for the first, 11 µM for the second.

`O=C(NC(=S)Nc1ccccc1N1CCCC1)c1ccc([N+](=O)[O-])cc1` and `Cc1cc([N+](=O)[O-])ccc1-c1ccc(C2Nc3ccccc3C(=O)N2O)o1` (configuration not stated) are within 1.5-fold of each other in IC50: 19.3 µM for the first, 18.1 µM for the second.

Compared with `N/C(=N\OC(=O)CCC1CCCC1)c1cccc([N+](=O)[O-])c1`, `N/C(=N\OC(=O)CCC1CCCC1)c1ccccc1` is 2.7-fold higher in IC50: 10.8 µM for the first, 29.6 µM for the second. The first is the more potent here.

`O=C(Nc1cccnc1)c1cn(-c2ccccc2)nc1-c1cccs1` and `Cc1ccc(NC(=O)c2cc(S(=O)(=O)NCCC3=CCCCC3)ccc2F)cc1` are within 1.5-fold of each other in IC50: 28.4 µM for the first, 33.2 µM for the second.

`Cc1ccc(NC(=S)/N=C(\N)Nc2nc(C)c3cc(C)ccc3n2)c(C)c1` and `Cc1cc(C)c(CSc2ncc(-c3ccc([N+](=O)[O-])cc3)[nH]2)c(C)c1` are within 1.5-fold of each other in IC50: 17 µM for the first, 17.4 µM for the second.

`O=S(=O)(CCN(CCS(=O)(=O)C(F)(F)F)CC1CCCO1)C(F)(F)F` (configuration not stated) and `Cc1ccc(S(=O)(=O)c2nc(S(C)(=O)=O)sc2N2CCCCC2C)cc1` (configuration not stated) are within 1.5-fold of each other in IC50: 11.2 µM for the first, 11.7 µM for the second.

Going from `CC[C@@H]1CC=C[C@H]2[C@H]1C(=O)N(Cc1ccccc1)[C@H]2c1ccoc1` to `CC1=C/C(=N\OS(=O)(=O)c2ccccc2)C(C)=CC1=O`, the IC50 falls from 7.42 µM to under 0.2 µM. The second is the more potent here.

`CC1(CC(=O)N/N=C/c2ccc(OCc3ccc(Cl)cc3Cl)cc2)OCCCO1` and `Cn1c(Cl)cnc1C1CC(=O)c2cc(Cl)ccc2O1` (configuration not stated) are within 1.5-fold of each other in IC50: 4.3 µM for the first, 4.44 µM for the second.

`CC(C)NC(=S)N/N=C1\CCCCc2ccccc21` and `COc1ccc2sc(N(CCCN(C)C)C(=O)c3ccc(S(=O)(=O)N4CCCc5ccccc54)cc3)nc2c1` are within 1.5-fold of each other in IC50: 10.9 µM for the first, 11.9 µM for the second.

With `COc1ccc(Cl)cc1NC(=O)CN(C)C(=O)C12CC3CC(CC(Cl)(C3)C1)C2` the IC50 was 23.8 µM.
